In patent publication US5854211A, “Compounds with growth hormone releasing properties” (Novo Nordisk A/S, priority 1993, dated 1998):
Residues, ends and D or L forms follow the SMILES beside them.

Test system: rat pituitary cells
Assay: In-vitro assay of GH secretion from cultured rat pituitary cells (rGH measured by SPA)
Format: cell-based
Settings: mixed rat anterior pituitary cell culture, 15 min stimulation at 37° C.
Experimental: An in-vitro assay using rat pituitary cells was established to study the effect of different GH secretagogues. The mixed pituitary cell culture was isolated from the anterior pituitary of male rats and cultured for 3 days. After washing the cells were stimulated for 15 min and the amount of GH secreted measured in the culture supernatant. The isolation of rat pituitary cells was a modification of Sartor, O. et al., Endocrinology 116, 1985, pp. 952-957. Pituitaries were discharged from 250 g male Sprague-Dawley rats after decapitation. The neurointermediate lobes were removed and the remainder was placed in Gey's medium supplemented with 0.25% glucose, 2× non essential amino acid and 1% BSA (isolation buffer). The glands were cut into small pieces and transferred to a flask containing 3 ml isolation buffer +11.5 mg trypsin and 1000 μg DNase and incubated for 35 min at 37° C., 95% O2 and 70 rotations per min. The fragments were washed 3 times by sedimentation in isolation buffer and aspirated into single cells by using a pasteur pipet. After dispersion the cells were filtered though a nylon filter (160 μm) to remove undigested tissue. The cells were washed 3 times with isolation buffer supplemented with trypsin inhibitor (0.75 mg/ml) and resuspended in culture medium (DMEM supplemented with 25 mM HEPES, 4mM Glutamine, 0.75% sodium bicarbonate, 2.5% FCS, 3% horse serum, 10% rat serum, 1 nM T3 and 40 μg/L dexamethasone) to a density of 2×10^5 cells/ml. The cells were seeded into microtiter plates, 200 μl/well and cultured for 3 days at 37° C. and 8% CO2. Following the culture period the cells were washed twice with stimulation buffer (HBSS supplemented with 1% BSA, 0.25% D-glucose and 25 mM HEPES) and preincubated for 1 hour. […] The buffer was collected and analyzed for rat growth hormone (rGH) content in a scintillation proximity assay (SPA) as follows (SPA, essentially as described in U.S. Pat. […] USA 82, 1985, pp. 8672-8676). The rGH assay was performed in OptiPlates (96-well plates) suitable for direct counting in a […] TopCount (β-scintillation counter). Assay protocol: 40 μl buffer 10 μl sample (incubated stimulation buffer) 50 μl ^125 I-rGH 50 μl rabbit anti-rGH 50 μl SPA reagent (anti-rabbit antibody bound to fluomicrospheres) The plates are sealed and placed on a plate shaker for 30 minutes followed by 10 hours of incubation, settling at 10°-15° C. and counting. In the SPA, rGH bound to an anti-GH rabbit antibody (primary antibody) is reacted with a second antibody bound to fluomicrospheres (SPA Type II RIA available from Amersham). Any radiolabelled rGH which is bound to the primary antibody will be immobilized on the fluomicrospheres which will then produce light. Measurement in a β-scintillation counter makes it possible to calculate the amount of radiolabelled rGH. The amount of radiolabelled rGH bound to the fluomicrospheres decreases with an increasing content of rGH in the sample.

| EC50 [nM] | Compound | Emax (% of GHRP-6) |
| --- | --- | --- |
| 0.8 | C[C@@H](N)C(=O)N[C@H](Cc1ccc2ccccc2c1)C(=O)NCC(=O)N[C@@H](Cc1c[nH]c2ccccc12)C(=O)N[C@H](Cc1ccccc1)C(=O)N[C@@H](CCCCN)C(N)=O [H-DAla-D2Nal--Gly--Trp-DPhe--Lys--NH2] (HELM PEPTIDE1{[dA].[O=C([C@@H](Cc1ccc2ccccc2c1)N[*:1])[*:2]].G.W.[dF].K.[am]}$$$$V2.0) | 75 % of GHRP-6 |
| 0.5 | H-His-D-Trp-Ala-Trp-D-Phe.psi.(CH2 NH)Lys-NH2 [Example 2] | 100 % of GHRP-6 |
| 5 | (2S)-((3-(4-Imidazolyl)propionyl)-D-Phe--Ala--Trp-D-Phe.psi.(CH2 NH)-6-aminohexanol | 80 % of GHRP-6 |
| 2 | C[C@H](NC(=O)[C@@H](Cc1c[nH]c2ccccc12)NC(=O)[C@@H](N)Cc1c[nH]cn1)C(=O)N[C@@H](Cc1c[nH]c2ccccc12)C(=O)N[C@H](Cc1ccccc1)C(=O)N[C@@H](CCCCN)C(N)=O [H--His-D-Trp--Ala--Trp-D-Phe--Lys--NH2] (HELM PEPTIDE1{H.[dW].A.W.[dF].K.[am]}$$$$V2.0) | 100 % of GHRP-6 |
| 1.8 | C[C@H](NC(=O)[C@@H](Cc1ccc2ccccc2c1)NC(=O)[C@@H](C)N)C(=O)N[C@@H](Cc1c[nH]c2ccccc12)C(=O)N[C@H](Cc1ccccc1)C(=O)N[C@@H](CCCCN)C(N)=O [H-D-Ala-D-2Nal--Ala--Trp-D-Phe--Lys--NH2] (HELM PEPTIDE1{[dA].[O=C([C@@H](Cc1ccc2ccccc2c1)N[*:1])[*:2]].A.W.[dF].K.[am]}$$$$V2.0) | 85 % of GHRP-6 |
